Reference: a melting point compilation (Tetko et al.; mined from patent text by program, amines drawn as free bases though some values may be those of a salt)

melting point [°C]	Structure (SMILES)
227 to 229	COc1cc2c(cc1Nc1ncc(Cl)c(Nc3cccc(OCC#N)c3)n1)CCOC(=O)N2C
104 to 105	C=CCOc1ccccc1S(N)(=O)=O
97.5 to 99	O=[N+]([O-])c1ccc(NCc2ccccc2)c(F)c1
219 to 220	O=c1ccc(S(=O)(=O)c2ccc(-c3ccccc3)cc2)n[nH]1
133 to 134	O=C(CCCCl)CN1C(=O)c2ccccc2C1=O
134 to 136	Cc1cn(C2CC2)c(=O)nc1NS(=O)(=O)c1ccc(N)cc1
232 to 235	O=c1c(C2=Nc3ccccc3S(=O)(=O)N2)c(O)c2ccccc2n1CC1CCCCC1
118 to 119	CCOc1c(CN2CCCCC2)c2c(c3c1OC(C)(C)C3)C(c1cccc(N(S(C)(=O)=O)S(C)(=O)=O)c1)=NC(C)(C)C2
98 to 99	c1ccc2c3c([nH]c2c1)C(c1ccc2c(c1)CCO2)NCC3 (stereo not given)
152 to 155	Nc1ccc(-c2nc3ccc(F)cc3s2)cc1
150 to 151	CCOC(=O)c1c(CCO)nc2cc(OC)c(OC)cc2c1-c1ccc(OC)c(OC)c1
195	COc1cc(C(F)(F)F)cc(Cl)c1-n1nc(C#N)c(S(=O)C(F)(F)F)c1N (stereo not given)
173 to 175	CCOC(=O)C(=O)CC(=O)c1cn(Cc2ccccc2F)c2cc(Cl)ccc2c1=O
82 to 87	NC(=O)C(F)(F)C(F)(F)C(=O)C(F)(F)F
151 to 152	NC(=O)N1CC(Oc2cccc(C(F)(F)F)c2)C1
94 to 97	CCCCCCCCCc1ccc(C(=O)O)c(O)c1
105 to 107	COc1cc2ccccc2cc1NC(=O)N1CCN(c2cc(C)cc(C)c2)CC1
196 to 197	CCN1C(=O)C(C(=O)Nc2ccc(F)cc2)c2cc3c(cc21)CC(C)O3 (stereo not given)
348 to 349	NC1=C2C=NN=C2N(c2ccc([N+](=O)[O-])cc2)CN1c1ccccc1
83 to 85	Brc1ccc(OCc2ccc3ccccc3c2)nc1
148 to 149	Cc1ncccc1CC(=NC#N)NC1CCc2cc(F)ccc21 (stereo not given)
140 to 141	CCC(C)(C)c1ccc(OCCCNC(=O)c2cc(OS(=O)(=O)CCCOc3ccc([N+](=O)[O-])cc3)c3ccccc3c2O)c(C(C)(C)CC)c1
144 to 145	O=c1oc2ccc(-c3ccc(F)cc3F)cc2c(=O)n1-c1cc(F)ccc1F
197 to 200	CN(C)c1ccc(NC(=O)N(C[C@H]2CC[C@@H](CN(C(=O)Nc3ccc(N(C)C)cc3)C3CCCCCCC3)CC2)C2CCCCCCC2)cc1
184 to 186	O=C1c2cc3nnn(Cc4ccccn4)c(=O)c3cc2OC2CCCN12 (stereo not given)

melting point [°C]	Structure (SMILES)
175 to 176	CC(=O)c1ccc(Cl)c(S(N)(=O)=O)c1
239 to 241	Cc1cc(-c2nncc3c(Br)c(OCc4ncnn4C)nn23)no1
129 to 130	CN(C)c1ccc(-c2cc(F)c(F)cc2-c2ccc(S(C)(=O)=O)cc2)cc1Cl
114 to 116	CCN(CC)C(=O)Sc1cc(OC)c(OC)cc1C(=O)c1ccccc1
199 to 201	COC1=NC2C=C(C(=O)NCC3CC3)C(NC(=O)c3cc(C(F)(F)F)nn3-c3ncccc3Cl)=C(Cl)C2S1 (stereo not given)
198 to 199	N#Cc1ccc(-c2cc(-c3cc(Br)ccc3Cl)no2)cc1
140 to 142	CC(C)(C)OC(=O)c1cc2cc(Cl)ccc2[nH]1
186 to 187	Cn1c(=O)oc2cc3c(cc21)OCC31C(=O)N(CC2CCCO2)c2ccccc21 (stereo not given)
200 to 202	O=C(Nc1ccccc1)Nc1ccc(F)c([N+](=O)[O-])c1
123 to 124	CCOC(=O)c1cnc2ccc(Cl)cc2c1-c1ccccc1
166 to 168	CC(O)c1cc2c(s1)C(=O)c1ccsc1C2=O (stereo not given)
62 to 67	CC(=O)SCC(Cc1ccccc1)C(=O)Nc1cc(C(=O)O)cc(C(F)(F)F)c1 (stereo not given)
258 to 260	COc1ccc2[nH]c(C(=O)c3ccccc3)c(NC(C)=O)c2c1
242 to 245	O=C(CO)Nc1nc2c(Cl)cccc2s1
131 to 132	COc1ccc(-c2cnc3c(-c4ccccc4)nc(-c4cccc(OC)c4)nc3c2)cc1
120 to 122	CC(=O)Oc1ccc2c(c1)CCC1C2CCC2(C)C(OS(C)(=O)=O)CCC12 (stereo not given)
168 to 170	Clc1nc(-c2ccccc2)nc2c1Cc1ccccc1O2
68 to 70	COc1ccccc1C(C)NCC(=O)Nc1c(C(C)C)cccc1C(C)C (stereo not given)
115 to 116	NNc1ccc(C2CCCCC2)cc1
122	CC(C)(Sc1nnnn1-c1ccccc1)c1ccc([N+](=O)[O-])cc1
184 to 185	CCc1nc2c(n1C(CC)CC)C(=O)N(C)CN2c1ccc(OC)cc1Cl
41 to 43	OCc1cc(F)cc(Br)c1
164 to 165	O=C1c2ccccc2C(=O)N1Cc1ccncc1
90 to 93	CN1CCC(Oc2ccc(F)cc2C(N)=O)C1 (stereo not given)
88 to 91	CCCCCCOc1ccc2cc(C(C)C(=O)O)ccc2c1 (stereo not given)

melting point [°C]	Structure (SMILES)
214 to 217	c1ccc(Cc2nnc(Nc3cccc(-n4ccnc4)c3)c3ccccc23)cc1
136 to 138	Cc1c(C(F)F)cc(-c2ccc(S(C)(=O)=O)cc2)n1-c1ccc(F)cc1
142 to 143	c1ccc(C(c2ccccc2)N2C(=NCCCn3ccnc3)c3cccc4cccc2c34)cc1
45 to 47	Cc1ncnc(Cl)c1C
123 to 124	CS(=O)(=O)c1ccc(-c2ccccc2CO)cc1
121 to 122	CCCNCc1cnc2c(C)c(NC(=O)c3ccc(OC[C@@H]4CCCO4)cc3)ccc2c1
102	O=C(O)CC1=CC2(Cc3ccc(Br)cc3)C(=O)N(c3cc(Cl)cc(Cl)c3)C(=O)N2C1 (stereo not given)
236 to 238	C[C@H](CN(C(=O)C1(C)C2CCC1CC2)c1ccccn1)N1CCN(c2cccc3[nH]ccc23)CC1 (stereo not given in full)
190	Cc1ccc(C(=O)c2cc(-c3ccc(Cl)cc3)c(N3CCOCC3)s2)cc1
217 to 219	COCCc1sc2ncnc(N)c2c1-c1ccc(NC(=O)Nc2ccccc2C)cc1
118 to 120	C1=Nc2ccccc2N2CCCc3cccc1c32
119	CC(C)(C)c1cc(CC(C)(C)C2SCCS2)cc(C(C)(C)C)c1O
105 to 108	CCOC(=O)c1c(N(Cc2c(F)cccc2F)C(=O)OCC)sc(-c2ccc([N+](=O)[O-])cc2)c1CBr
113	COCCCNCCCc1ccc(-c2cnc(N)c(C(=O)Nc3cccnc3)n2)cc1
255 to 256	O=C(O)c1cccc(-c2nc(-c3ccc(F)c(F)c3)cs2)c1
159 to 160	Cc1c(NC(=O)c2ccc(OCc3ccc(F)cc3)cc2)ccc2cc(CN3CCCCC3)cnc12
83 to 84	CCCCCCCCCCCC(=O)NCc1ccsc1
205 to 206	NC1SC2=CC=CC2=C1C(=O)c1ccc(Br)cc1 (stereo not given)
125 to 126	COc1ccc2c(c1)N(CCNC(C)=O)C(c1ccccc1)CO2 (stereo not given)
127 to 128	COc1cc(COc2nn(-c3ccccc3)cc2CCc2cscn2)ccc1OCc1nc(-c2ccco2)oc1C
148	CCc1cc2[nH]c(=O)oc2cc1NCC1CCCOC1 (stereo not given)
22 to 25	COc1cccc2c1CCCC2N (stereo not given)
176	CCOC(=O)N1CCC(C(=O)O)=Cc2ccccc21
247 to 248	Cn1cc(-c2cc3cccnc3[nH]2)c2cc(N)ccc21
314 to 316	CCn1c(=O)c2cc(C(=O)O)cn2c2ccccc21

melting point [°C]	Structure (SMILES)
254 to 256	CON=Cc1nc2c(N)nc3cc(-c4cccc(CS(N)(=O)=O)c4)ccc3c2s1
183 to 185	CC(C)(C)c1nc(CN2C(=O)C3(COc4cc5c(cc43)OCO5)c3ccccc32)no1 (stereo not given)
60 to 66	CCOC(=O)C(=NO)c1cnsn1
150 to 153	CC(C)(S)CNC(=O)c1ccccc1-c1ccccc1C(=O)O
68 to 74	CCCCC1(CCCC)C(=O)N(C(C)(C)C)CC(C)(C)N1OC(C)(C)C#N
169	N#Cc1cnn2c(C(F)(F)F)cc(-c3ccccc3Cl)nc12
185 to 187	O=C(CN1CCC(Cc2ccc(F)cc2)CC1)Nc1ccc2c(c1)NC(=O)CO2
106 to 108	Cc1ccccc1C(=O)N1CCC(=O)c2ccc(Cl)cc21
136 to 137	CCC(OC)c1ccc(Cl)c2nc3n(c12)CCCN3c1ccc(Cl)cc1Cl (stereo not given)
234	Cc1nccc2c3ccc(O)cc3n(Cc3ccccc3)c12
223 to 224	CC(=O)NCC1CN(c2ccc(N3CCN(c4nc5ccccc5o4)CC3)c(F)c2)C(=O)O1 (stereo not given)
208	COC(=O)c1occc1NC(N)=O
227 to 229	Cc1c(-c2ccc(O)c(F)c2)sc(C=O)c1-c1ccc(O)cc1
185 to 186	CS(=O)(=O)c1ccc(NCCc2[nH]c3c(cnc4cc(Cl)ccc43)c2C=NNc2ccccc2)cc1
122 to 123	COC(=O)c1ccccc1CSc1c(O)cc(-c2ccccc2)oc1=O
122 to 124	CC(=O)SCCc1cn2cccnc2n1
125 to 127	Clc1ccc([C@@]2(Cn3ccnc3)OC[C@H](COc3ccc4c(c3)CCN(CCCc3ccc(-c5ccccc5)cc3)C4)O2)c(Cl)c1 (racemic)
119 to 121	COC(=O)c1csc(Cl)c1NC(C)=O
193 to 194	CSc1ncc(Cc2ccc(Cl)cc2)c(=O)[nH]1
167 to 168	NCCCCc1ccc(C2=NNC(=O)CC2)cc1
115 to 117	OC(c1ccc(OCc2ccccc2)cc1)C(F)(F)F (stereo not given)
88	CCOC(=O)C1=C(C)N(C)C(C)=C(C(=O)OCC)C1c1ccc(OC(C)(C)C(=O)OCC)cc1
137 to 139	CC(O)c1cccc(S(N)(=O)=O)c1 (stereo not given)

Structure (SMILES)	melting point [°C]
CC(=O)N(C)c1cccc(-c2ccnc3c(C(=O)c4cccs4)cnn23)c1	190 to 192
OC1(COc2ccccc2Cc2ccccc2)CN2CCC1CC2 (stereo not given)	71 to 73
